{"source": "paper PMC5218480", "about": "(PLoS ONE, 2017)", "test_system": "MV-4-11 cells", "assay": "Gene expression microarray analysis (Affymetrix PrimeView) and GSEA", "format": "cell-based, human", "parameters": "RFU PODN (11730768_x_at) / Fold change /veh PODN (11730768_x_at) / RFU LINC00158 (11744669_a_at) / Fold change /veh LINC00158 (11744669_a_at) / RFU DUSP10 (11751237_a_at) / Fold change /veh DUSP10 (11751237_a_at) / RFU ID3 (11757404_x_at) / Fold change /veh ID3 (11757404_x_at) / RFU PLEKHG5 (11737974_s_at) / Fold change /veh PLEKHG5 (11737974_s_at) / RFU LRRC4B (11730491_at) / Fold change /veh LRRC4B (11730491_at) / RFU GIMAP4 (11747438_a_at) / Fold change /veh GIMAP4 (11747438_a_at) / RFU KRT8 (11758183_x_at) / Fold change /veh KRT8 (11758183_x_at) / RFU CNN1 (11734310_a_at) / Fold change /veh CNN1 (11734310_a_at) / RFU VPS37D (11726825_at) / Fold change /veh VPS37D (11726825_at) / RFU C10orf10 (11716522_x_at) / Fold change /veh C10orf10 (11716522_x_at) / RFU KIR2DL2 /// KIR2DL4 /// KIR2DL5A /// KIR2DL5B /// KIR2DS1 /// KIR2DS2 /// KIR2DS3 /// KIR2DS4 /// KIR3DL3 /// KIR3DL3 /// KIR3DS1 (11738374_at) / Fold change /veh KIR2DL2 /// KIR2DL4 /// KIR2DL5A /// KIR2DL5B /// KIR2DS1 /// KIR2DS2 /// KIR2DS3 /// KIR2DS4 /// KIR3DL3 /// KIR3DL3 /// KIR3DS1 (11738374_at) / RFU C1QL1 (11718748_at) / Fold change /veh C1QL1 (11718748_at) / RFU TMPRSS4 (11747572_a_at) / Fold change /veh TMPRSS4 (11747572_a_at) / RFU HAMP (11756126_x_at) / Fold change /veh HAMP (11756126_x_at) / RFU RNFT2 (11725882_a_at) / Fold change /veh RNFT2 (11725882_a_at) / RFU NR4A2 (11747474_a_at) / Fold change /veh NR4A2 (11747474_a_at) / RFU ABCC12 (11746883_a_at) / Fold change /veh ABCC12 (11746883_a_at) / RFU TMEM136 (11760407_x_at) / Fold change /veh TMEM136 (11760407_x_at) / RFU CLDN22 /// WWC2 (11732394_at) / Fold change /veh CLDN22 /// WWC2 (11732394_at) / RFU HLA-DPB1 (11760878_x_at) / Fold change /veh HLA-DPB1 (11760878_x_at) / RFU SPINT1 (11716480_a_at) / Fold change /veh SPINT1 (11716480_a_at) / RFU GAP43 (11754022_s_at) / Fold change /veh GAP43 (11754022_s_at) / RFU A4GNT (11735810_at) / Fold change /veh A4GNT (11735810_at) / RFU PRB3 (11715151_x_at) / Fold change /veh PRB3 (11715151_x_at) / RFU TUBB4B (11761932_at) / Fold change /veh TUBB4B (11761932_at) / RFU CAPN14 (11732068_a_at) / Fold change /veh CAPN14 (11732068_a_at) / RFU TMCC2 (11721928_a_at) / Fold change /veh TMCC2 (11721928_a_at) / RFU IRGQ (11745062_a_at) / Fold change /veh IRGQ (11745062_a_at) / RFU FAM174B (11720279_a_at) / Fold change /veh FAM174B (11720279_a_at) / RFU TMPRSS4 (11748680_a_at) / Fold change /veh TMPRSS4 (11748680_a_at) / RFU FAM212B (11763350_a_at) / Fold change /veh FAM212B (11763350_a_at) / RFU PLEKHG5 (11743358_a_at) / Fold change /veh PLEKHG5 (11743358_a_at) / RFU ZSCAN30 (11745921_a_at) / Fold change /veh ZSCAN30 (11745921_a_at) / RFU CMKLR1 (11741424_a_at) / Fold change /veh CMKLR1 (11741424_a_at) / RFU LOC101060620 /// MAPK8IP1 (11723275_at) / Fold change /veh LOC101060620 /// MAPK8IP1 (11723275_at) / RFU SPTSSB (11747773_x_at) / Fold change /veh SPTSSB (11747773_x_at) / RFU PRSS12 (11739890_at) / Fold change /veh PRSS12 (11739890_at) / RFU BIN1 (11741810_x_at) / Fold change /veh BIN1 (11741810_x_at) / RFU WNT11 (11732464_a_at) / Fold change /veh WNT11 (11732464_a_at) / RFU C10orf10 (11716521_a_at) / Fold change /veh C10orf10 (11716521_a_at) / RFU C5orf56 (11738089_at) / Fold change /veh C5orf56 (11738089_at) / RFU CYB561 (11721691_x_at) / Fold change /veh CYB561 (11721691_x_at) / RFU ANKRD19P (11752326_a_at) / Fold change /veh ANKRD19P (11752326_a_at) / RFU OR2T12 /// OR2T33 /// OR2T8 (11738714_s_at) / Fold change /veh OR2T12 /// OR2T33 /// OR2T8 (11738714_s_at) / RFU VCAN (11748164_a_at) / Fold change /veh VCAN (11748164_a_at) / RFU JSRP1 (11732532_at) / Fold change /veh JSRP1 (11732532_at) / RFU KRTAP10-11 (11738290_x_at) / Fold change /veh KRTAP10-11 (11738290_x_at) / RFU MYO3A (11730013_a_at) / Fold change /veh MYO3A (11730013_a_at) / RFU EBF3 (11725865_a_at) / Fold change /veh EBF3 (11725865_a_at) / RFU CAMK2N1 (11719241_x_at) / Fold change /veh CAMK2N1 (11719241_x_at) / RFU C5orf56 (11738088_a_at) / Fold change /veh C5orf56 (11738088_a_at) / RFU OLFML3 (11715873_a_at) / Fold change /veh OLFML3 (11715873_a_at) / RFU LOC100653217 /// NTM (11731650_a_at) / Fold change /veh LOC100653217 /// NTM (11731650_a_at) / RFU MAPK11 (11762145_a_at) / Fold change /veh MAPK11 (11762145_a_at) / RFU FIZ1 (11724087_x_at) / Fold change /veh FIZ1 (11724087_x_at) / RFU OASL (11726364_x_at) / Fold change /veh OASL (11726364_x_at) / RFU SOX15 (11748057_x_at) / Fold change /veh SOX15 (11748057_x_at) / RFU CD79A (11719716_a_at) / Fold change /veh CD79A (11719716_a_at) / RFU HIST1H1D (11736915_at) / Fold change /veh HIST1H1D (11736915_at) / RFU CASKIN2 (11723855_a_at) / Fold change /veh CASKIN2 (11723855_a_at) / RFU LOC730098 (11760151_x_at) / Fold change /veh LOC730098 (11760151_x_at) / RFU OR4N2 (11742367_at) / Fold change /veh OR4N2 (11742367_at) / RFU PRRT2 (11749266_a_at) / Fold change /veh PRRT2 (11749266_a_at) / RFU SNX32 (11753110_a_at) / Fold change /veh SNX32 (11753110_a_at) / RFU CDHR5 (11726645_a_at) / Fold change /veh CDHR5 (11726645_a_at) / RFU RCAN1 (11760418_a_at) / Fold change /veh RCAN1 (11760418_a_at) / RFU FAM167A (11723789_a_at) / Fold change /veh FAM167A (11723789_a_at) / RFU FAM26E (11764081_at) / Fold change /veh FAM26E (11764081_at) / RFU ISYNA1 (11749810_s_at) / Fold change /veh ISYNA1 (11749810_s_at) / RFU ACY1 (11761880_at) / Fold change /veh ACY1 (11761880_at) / RFU 11764098_at / Fold change /veh 11764098_at / RFU SAMD14 (11745864_x_at) / Fold change /veh SAMD14 (11745864_x_at) / RFU NPB (11741838_a_at) / Fold change /veh NPB (11741838_a_at) / RFU TMPRSS6 (11731388_a_at) / Fold change /veh TMPRSS6 (11731388_a_at) / RFU KRTAP10-2 (11738614_at) / Fold change /veh KRTAP10-2 (11738614_at) / RFU ARHGAP8 /// PRR5-ARHGAP8 (11727945_x_at) / Fold change /veh ARHGAP8 /// PRR5-ARHGAP8 (11727945_x_at) / RFU KRTAP5-7 /// NADSYN1 (11734609_at) / Fold change /veh KRTAP5-7 /// NADSYN1 (11734609_at) / RFU RASL12 (11751679_a_at) / Fold change /veh RASL12 (11751679_a_at) / RFU CDKN2B (11736163_a_at) / Fold change /veh CDKN2B (11736163_a_at) / RFU PRF1 (11729649_at) / Fold change /veh PRF1 (11729649_at) / RFU, ZNF638 /// ZNF638-IT1 / Fold change vs veh, ZNF638 /// ZNF638-IT1 / RFU, PANK3 / Fold change vs veh, PANK3 / RFU, SH3YL1 / Fold change vs veh, SH3YL1 / RFU, ZEB2 / Fold change vs veh, ZEB2 / RFU, NRIP1 / Fold change vs veh, NRIP1 / RFU, PTTG1IP / Fold change vs veh, PTTG1IP / RFU, CAPN2 / Fold change vs veh, CAPN2 / RFU, MED14 / Fold change vs veh, MED14 / RFU, SNORA58 / Fold change vs veh, SNORA58 / RFU, C1orf63 / Fold change vs veh, C1orf63 / RFU, LRRFIP1 / Fold change vs veh, LRRFIP1 / RFU, NDUFAF7 / Fold change vs veh, NDUFAF7 / RFU, SLC12A2 / Fold change vs veh, SLC12A2 / RFU, IBTK / Fold change vs veh, IBTK / RFU, ESF1 / Fold change vs veh, ESF1 / Fold change vs veh, TMEM50B / RFU, TAOK1 / Fold change vs veh, TAOK1 / RFU, ACBD3 / Fold change vs veh, ACBD3 / RFU, TMA16 / Fold change vs veh, TMA16 / RFU, RWDD3 / Fold change vs veh, RWDD3 / RFU, BCAT1 / Fold change vs veh, BCAT1 / RFU, EDEM3 / Fold change vs veh, EDEM3 / RFU, TMEM33 / Fold change vs veh, TMEM33 / RFU, WDR75 / Fold change vs veh, WDR75 / RFU, AHCTF1 / Fold change vs veh, AHCTF1 / RFU, TFRC / Fold change vs veh, TFRC / RFU, ZDHHC17 / Fold change vs veh, ZDHHC17 / RFU, NOM1 / Fold change vs veh, NOM1 / RFU, ARL8B / Fold change vs veh, ARL8B / RFU, ZBTB11 / Fold change vs veh, ZBTB11 / RFU, TAMM41 / Fold change vs veh, TAMM41 / RFU, KIAA1704 /// LOC100996395 / Fold change vs veh, KIAA1704 /// LOC100996395 / RFU, ING1 / Fold change vs veh, ING1 / RFU, TRMT61B / Fold change vs veh, TRMT61B / RFU, FUBP3 / Fold change vs veh, FUBP3 / RFU, TP53 / Fold change vs veh, TP53 / RFU, TNKS2 / Fold change vs veh, TNKS2 / RFU, ZFP14 / Fold change vs veh, ZFP14 / RFU, ACTR2 / Fold change vs veh, ACTR2 / RFU, PPP3R1 / Fold change vs veh, PPP3R1 / RFU, PIK3R1 / Fold change vs veh, PIK3R1 / RFU, HNRNPA1 / Fold change vs veh, HNRNPA1 / RFU, RNF170 / Fold change vs veh, RNF170 / RFU, ZNF28 / Fold change vs veh, ZNF28 / RFU, RNGTT / Fold change vs veh, RNGTT / RFU, OGT / Fold change vs veh, OGT / RFU, BRD1 / Fold change vs veh, BRD1 / RFU, MARS / Fold change vs veh, MARS / RFU, ZNF655 / Fold change vs veh, ZNF655 / RFU, FAHD1 / Fold change vs veh, FAHD1 / RFU, BDP1 / Fold change vs veh, BDP1 / RFU, LRRCC1 / Fold change vs veh, LRRCC1 / RFU, ARID1A / Fold change vs veh, ARID1A / RFU, ZNF146 / Fold change vs veh, ZNF146 / RFU, ZNF330 / Fold change vs veh, ZNF330 / RFU, GPN3 / Fold change vs veh, GPN3 / RFU, C9orf123 / Fold change vs veh, C9orf123 / RFU, N4BP2L2 / Fold change vs veh, N4BP2L2 / RFU, ARFIP1 / Fold change vs veh, ARFIP1 / RFU, FAM179B / Fold change vs veh, FAM179B / RFU, BCL10 / Fold change vs veh, BCL10 / RFU, UHRF1BP1L / Fold change vs veh, UHRF1BP1L / RFU, BET1 / Fold change vs veh, BET1 / RFU, CNOT2 / Fold change vs veh, CNOT2 / RFU, ZNF268 / Fold change vs veh, ZNF268 / Fold change vs veh, ZNF507 / RFU, DGCR2 / Fold change vs veh, DGCR2 / RFU, WDSUB1 / Fold change vs veh, WDSUB1 / Fold change vs veh, HSP90B1 /// MIR3652 / RFU, ADSS / Fold change vs veh, ADSS / RFU, GK / Fold change vs veh, GK / RFU, ZNF148 / Fold change vs veh, ZNF148 / RFU, TAF9 / Fold change vs veh, TAF9 / RFU, SLC1A5 / Fold change vs veh, SLC1A5 / RFU, SLMO2 / Fold change vs veh, SLMO2 / RFU, ABCC4 / Fold change vs veh, ABCC4 / RFU, LOC101060439 /// RAP1B / Fold change vs veh, LOC101060439 /// RAP1B / RFU, RFX7 / Fold change vs veh, RFX7 / RFU, GTPBP10 / Fold change vs veh, GTPBP10 / RFU, CNEP1R1 / Fold change vs veh, CNEP1R1 / RFU, BIVM-ERCC5 /// ERCC5 / Fold change vs veh, BIVM-ERCC5 /// ERCC5 / RFU, ILF3 / Fold change vs veh, ILF3 / RFU 11762660_at / Fold change /veh 11762660_at / RFU VCAN (11757783_s_at) / Fold change /veh VCAN (11757783_s_at) / RFU DDX43 (11728927_at) / Fold change /veh DDX43 (11728927_at) / RFU KRT8 (11758188_x_at) / Fold change /veh KRT8 (11758188_x_at) / RFU NKD1 (11759106_at) / Fold change /veh NKD1 (11759106_at) / RFU SRD5A1 (11742802_a_at) / Fold change /veh SRD5A1 (11742802_a_at) / RFU TPSAB1 /// TPSB2 (11721975_s_at) / Fold change /veh TPSAB1 /// TPSB2 (11721975_s_at) / RFU GSTM3 (11746129_a_at) / Fold change /veh GSTM3 (11746129_a_at) / RFU IL23R (11737362_x_at) / Fold change /veh IL23R (11737362_x_at) / RFU TMEM51 (11727254_a_at) / Fold change /veh TMEM51 (11727254_a_at) / RFU PIWIL2 (11732686_x_at) / Fold change /veh PIWIL2 (11732686_x_at) / RFU ORM1 (11744905_x_at) / Fold change /veh ORM1 (11744905_x_at) / RFU CCDC152 (11743942_at) / Fold change /veh CCDC152 (11743942_at) / RFU ECM1 (11717891_a_at) / Fold change /veh ECM1 (11717891_a_at) / RFU IL23R (11748794_a_at) / Fold change /veh IL23R (11748794_a_at) / RFU TNFAIP8L3 (11732012_x_at) / Fold change /veh TNFAIP8L3 (11732012_x_at) / RFU MBOAT4 (11741988_at) / Fold change /veh MBOAT4 (11741988_at) / RFU 11764193_at / Fold change /veh 11764193_at / RFU TMEM53 (11763286_at) / Fold change /veh TMEM53 (11763286_at) / RFU MAGEB2 (11727129_at) / Fold change /veh MAGEB2 (11727129_at) / RFU TMEM200A (11744735_a_at) / Fold change /veh TMEM200A (11744735_a_at) / RFU CCDC152 (11751479_a_at) / Fold change /veh CCDC152 (11751479_a_at) / RFU FAM211A (11726209_a_at) / Fold change /veh FAM211A (11726209_a_at) / RFU RGS16 (11746705_a_at) / Fold change /veh RGS16 (11746705_a_at) / RFU VCAN (11755009_s_at) / Fold change /veh VCAN (11755009_s_at) / RFU RHOB (11743442_s_at) / Fold change /veh RHOB (11743442_s_at) / RFU RGS16 (11720943_a_at) / Fold change /veh RGS16 (11720943_a_at) / RFU RGS16 (11720944_at) / Fold change /veh RGS16 (11720944_at) / RFU, VPS4B / Fold change vs veh, VPS4B / RFU, CREB1 / Fold change vs veh, CREB1 / RFU, DNAJC13 / Fold change vs veh, DNAJC13 / RFU, GNAQ / Fold change vs veh, GNAQ / RFU, CDK5R1 / Fold change vs veh, CDK5R1 / RFU, ZRANB3 / Fold change vs veh, ZRANB3 / RFU, CUL4A / Fold change vs veh, CUL4A / RFU, CCNY / Fold change vs veh, CCNY / RFU, UFL1 / Fold change vs veh, UFL1 / RFU, COG3 / Fold change vs veh, COG3 / RFU, DIAPH2 / Fold change vs veh, DIAPH2 / RFU, SKA2 / Fold change vs veh, SKA2 / RFU, AFF3 / Fold change vs veh, AFF3 / RFU, LMF1 / Fold change vs veh, LMF1 / RFU, IPO11 / Fold change vs veh, IPO11 / RFU, DFFB / Fold change vs veh, DFFB / RFU, FOXP1 / Fold change vs veh, FOXP1 / RFU, CARD8 / Fold change vs veh, CARD8 / RFU, STRN3 / Fold change vs veh, STRN3 / RFU, ADK / Fold change vs veh, ADK / RFU, RASSF2 / Fold change vs veh, RASSF2 / RFU, WIPF1 / Fold change vs veh, WIPF1 / RFU, LARP1B / Fold change vs veh, LARP1B / RFU, RASA1 / Fold change vs veh, RASA1 / RFU, RB1 / Fold change vs veh, RB1 / RFU, PPFIA1 / Fold change vs veh, PPFIA1 / RFU, MAT2A / Fold change vs veh, MAT2A / RFU, CCT5 / Fold change vs veh, CCT5 / RFU, WDR92 / Fold change vs veh, WDR92 / RFU, CUX1 / Fold change vs veh, CUX1 / RFU, TTC7A / Fold change vs veh, TTC7A / RFU, TMEM135 / Fold change vs veh, TMEM135 / RFU, DEPTOR / Fold change vs veh, DEPTOR / RFU, CPM / Fold change vs veh, CPM / RFU, DNAJB6 / Fold change vs veh, DNAJB6 / RFU, CACNA2D3 / Fold change vs veh, CACNA2D3 / RFU, DTX4 / Fold change vs veh, DTX4 / RFU, TFCP2 / Fold change vs veh, TFCP2 / RFU, GMCL1 /// GMCL1P1 / Fold change vs veh, GMCL1 /// GMCL1P1 / RFU, AEBP2 / Fold change vs veh, AEBP2 / RFU, SNHG1 /// SNORD22 /// SNORD25 /// SNORD26 /// SNORD27 /// SNORD28 /// SNORD29 /// SNORD31 / Fold change vs veh, SNHG1 /// SNORD22 /// SNORD25 /// SNORD26 /// SNORD27 /// SNORD28 /// SNORD29 /// SNORD31 / Fold change (Aza/veh), C12orf56 (ProbeSet 11735607_a_at) / Fold change (ACY-1035/veh), C12orf56 (ProbeSet 11735607_a_at) / Fold change (Aza/veh), FGFR1OP (ProbeSet 11751329_s_at) / Fold change (ACY-1035/veh), FGFR1OP (ProbeSet 11751329_s_at) / Fold change (Aza/veh), VPS36 (ProbeSet 11739960_a_at) / Fold change (ACY-1035/veh), VPS36 (ProbeSet 11739960_a_at) / RFU SYPL1 (11715823_x_at) / Fold change /veh SYPL1 (11715823_x_at) / RFU IGFBP7 (11715501_s_at) / Fold change /veh IGFBP7 (11715501_s_at) / RFU REEP3 (11722064_at) / Fold change /veh REEP3 (11722064_at) / RFU IGLL1 (11728026_x_at) / Fold change /veh IGLL1 (11728026_x_at): dose or concentration left out as unconfirmed", "conditions": "MV-4-11 cells, 48 hours", "data": [{"smiles": "Nc1ncn([C@@H]2O[C@H](CO)[C@@H](O)[C@H]2O)c(=O)n1", "note": "[azacitidine]", "values": [{"measurement": "Fold change /veh MBOAT4 (11741988_at)", "result": 1.51}]}]}
